Source: US9943524B2, “Use of alkaloid in preparing pharmaceutical compositions for preventing or treating pulmonary fibrosis” (China Pharmaceutical University, priority 2014, dated 2018)

Key:
[1] = test system: pulmonary fibrosis mice induced by bleomycin; test: Masson stained pathological evaluation and imaging analysis of collagen (Embodiment 4); type: in vivo, C57BL/6 mice; conditions: 30, 60 mg/kg, prevention and treatment groups (FIG. 5, 6); lower dose better in prevention, higher dose better in treatment
Method: (§1) Female C57BL/6 mice (eight-week-old) are established for models after 7 days, the time is set for the mice to adapt to the environment. After fasts for overnight, the mice are anaesthetized by 3% chloral hydrate and fixed. Sterilize and incise neck skin longitudinally as little injury as possible. Split fascia and muscle with tweezers longitudinally and expose the windpipe. Then, about 35 μl (3.5 mg/kg) bleomycin are injected into windpipe with microinjector. Put the mice upright rapidly and rotate the mice for 3˜5 minutes, so that bleomycin is able to enter into the pulmones uniformly. Observe the breathing of mice. Sterilize neck injury with 75% alcohol tampon and stitch the wound, then 1 drop or 2 drops of benzylpenicillin injection is/are dripped into the suture. Put the mice back into dry and clean cages, and feed them normally after waking up. Operations are done on operating table at about […]. Physiological saline using in injection is injected into windpipe of sham operation group.
(§2) Model animals are divided into prevention groups and treatment groups, then drugs are given to the two groups respectively. According to internationally methods of drug administration, drugs are given continuously to the prevention groups by means of intragastric administration from the second day after successfully establishing model to the 14th day, and drugs are given continuously to treatment groups by means of intragastric administration from the 8th day after successfully establishing model to the 21th day. Groups and dosage regimen are shown in tab.1.
Masson staining is a method aiming at specific staining of fibrillar collagen. After the last intragastric administration, the mice are anaesthetized and killed to collect the lung tissue. Immerse the left lobule in 10% formalin, and embed it by paraffin after being fixed, then is cut it into slices to observe the collagen deposition by Masson staining. Semi quantitative analysis is made by using Image-Pro Plus6.0. Integrated optical density (IOD) of collagen in each visual field is measured after Masson staining. 5 samples are studied in each group and 5 visual fields are picked out from each group. Statistics analysis is made by calculating mean value which is considered as relative amount of collagen in each group.

[2] = test system: pulmonary fibrosis mice induced by bleomycin; test: Determination of mice mortality (Embodiment 4); type: in vivo, C57BL/6 mice
Method: as §1, §2
From the 0th day (the day when the model is established) to 14th day, drugs are given continuously to prevention groups. From the 8th day after successfully establishing model to 21th day, drugs are given continuously to treatment groups. Statistical analysis of death of animals in each group is carried on every day and the survival rate of animals in each group is calculated. Results are shown in tab.2.

[3] = test system: pulmonary fibrosis mice induced by bleomycin; test: HE stained pathological evaluation and inflammation scores (Embodiment 4); type: in vivo, C57BL/6 mice
Method: as §1, §2
After the last intragastric administration, the mice are anaesthetized and killed to collect the lung tissue. Immerse the left lobule in 10% formalin, and embed it by paraffin after being fixed, then cut it into slices to observe the pathological changes by HE staining. As is shown in FIG. 3, structures of lobules of sham operation group are normal and the alveolar walls are complete without inflammation and fibrosis pathological changes. Obvious inflammation injury and masses of tissue begin to appear in lung of mice in model group, then the normal lung tissue disappears and alveolar is blocked. […] The groups with lower dose (30 mg/kg) of the 3 compounds show better effect than the groups with higher dose. The pulmonary inflammation disappears and alveolar structure is clear in groups with lower dose.
Inflammatory classification semi quantitative statistics analysis is made according to results of HE staining. Grade 0 represents normal tissue or minimal inflammation change. Grade 1 (+) represents mild to moderate inflammation change, and lung tissue without obvious damage. Grade 2 (++) represents moderate to severe inflammation injury, and alveolar septum is thickened to form masses of tissue, or lung tissue with damage caused by partial area inflammation. Grade 3 (+++) represents severe inflammation injury, and structure of restricted regions in lung tissue is severely damaged, thus resulting in obliteration. […] The groups with lower dose show better effect than the groups with higher dose. In general, the 3 compounds have better effect in decreasing the pulmonary inflammation than the positive drug pirfenidone.

TGF-β1 = test: ELISA content determination of TGF-β1 in mice lung tissue (Embodiment 4); type: in vivo, C57BL/6 mice
Method: as §1, §2
TGF-β1 is a universally recognized strong pro-fibrotic cytokine. It can stimulate the cells to synthesize and secrete extracellular matrix as well as exchange the activity of matrix-degrading enzyme component and directly increase the deposition of ECM. The progress of pulmonary fibrosis can be slowed down by decreasing the content of TGF-β1 in lung tissue. Elisa test kit (which is purchased from Shanghai Excell Biological Technology Co., Ltd.) according to specification is used in the determination of TGF-β1 in mice lung tissue. Results can be seen in FIG. 8.

[4] = test system: pulmonary fibrosis mice induced by bleomycin; test: Detection of the mice lung index (Embodiment 4); type: in vivo, C57BL/6 mice; conditions: 30 and 60 mg/kg, prevention groups and treatment groups, versus model group (FIG. 2); lower dose better in prevention groups
Method: as §1, §2
After the last intragastric administration, the mice are killed to strip and weigh the lung, and the lung index is the lung weight divided by mouse weight (FIG. 2). […] In general, the 3 compounds have better effect in decreasing the mortality of mice than the positive drug pirfenidone.

[5] = test system: pulmonary fibrosis mice induced by bleomycin; test: Activity of 8 alkaloids and pentoxyverine against pulmonary fibrosis in mice (Embodiment 3); type: in vivo, C57BL/6 mice; conditions: intragastric from first day after model to 21th day; for pulmonary inflammation, injury and fibrosis in HE and Masson stained pathological sections: alkaloids and pentoxyverine 30 mg/kg (FIG. 1B, 1C)
Method: as §1
Experimental mice are randomly divided into 12 groups: 10 mice in model group, 10 mice in pentoxyverine group, and 5 mice in any other group. Group 1 is sham operation group, group 2 is model group, group 3 is pentoxyverine group, group 4 is positive drug pirfenidone group, groups 5-12 are compounds I-VIII administration group respectively. Models of groups 2-12 are established by using bleomycin with the same method used in embodiment 2. From the first day after successfully establishing model, 30 mg/kg pentoxyverine and 300 mg/kg pirfenidone are given to group 3 and group 4 by means of intragastric administration respectively. 30 mg/kg compounds I-VIII are given to groups 5-12 also by means of intragastric administration respectively. Besides, same doses of solvent are given to sham operation group and model group until the 21th day. After the last intragastric administration, the mice are killed to collect the lung tissue, and the right lobule is used for determining the content of hydroxyproline, while the left lobule is used for preparing pathological sections.

[6] = test system: pulmonary fibrosis mice induced by bleomycin; test: Content determination of hydroxyproline in lung tissue (Embodiment 4); type: in vivo, C57BL/6 mice; conditions: 30 mg/kg and 60 mg/kg, prevention groups and treatment groups (FIG. 7); lower dose slightly better
Method: as §1, §2
Hydroxyproline mainly exists in collagen protein, but there is only a very small amounts in elastin proteins and it cannot found in other proteins. Therefore the content of collagen protein can be indicated by measuring the content of hydroxyproline, so as to evaluate the degree of pulmonary fibrosis. Method of test kit (which is purchased from Nanjing Jiancheng Biological Technology Co., Ltd.) according to specification is used in determination of hydroxyproline. Results can be seen in FIG. 7.

[7] = test system: cough of guinea pig induced by citric acid; conditions: cited from earlier work
cough reflex pathway = conditions: in vivo; cited from earlier work

CC[C@@H]1[C@H]2CCCCN3CC[C@H]([C@@H]4[C@H]1OC(=O)[C@@H]4C)[C@@H]23 [Compound VIII, Sessilifoline B]
collagen deposition (Masson staining, integrated optical density) [1]: significantly decrease collagen deposition | Survival rate ([2]; prevention groups, 30 mg/kg intragastric to the 14th day): 90% | Mortality (number of dead animals) ([2]; prevention groups, 30 mg/kg intragastric to the 14th day, 10 animals): 1 | Survival rate ([2]; prevention groups, 60 mg/kg intragastric to the 14th day): 80% | Mortality (number of dead animals) ([2]; prevention groups, 60 mg/kg intragastric to the 14th day, 10 animals): 2 | Survival rate ([2]; treatment groups, 30 mg/kg intragastric from the 8th to the 21th day): 83% | Mortality (number of dead animals) ([2]; treatment groups, 30 mg/kg intragastric from the 8th to the 21th day, 18 animals): 3 | Survival rate ([2]; treatment groups, 60 mg/kg intragastric from the 8th to the 21th day): 78% | Mortality (number of dead animals) ([2]; treatment groups, 60 mg/kg intragastric from the 8th to the 21th day, 18 animals): 4 | lung tissue inflammation scores (HE stained, grade 0-3) ([3]; 30, 60 mg/kg, prevention and treatment groups (FIG. 4), lower dose better): significantly decrease the pulmonary inflammation | pulmonary inflammation and injury, HE stained pathological changes ([3]; prevention groups and treatment groups (FIG. 3), lower dose (30 mg/kg) better than higher dose): significantly alleviate the pulmonary inflammation | content of TGF-β1 in lung tissue (ELISA) (TGF-β1; 30 mg/kg and 60 mg/kg, prevention groups and treatment groups, versus model group (FIG. 8), lower dose more effective): effectively decrease the content of TGF-β1 | effect on content of TGF-β1, comparison among compounds (TGF-β1; ELISA, lung tissue): slightly better than that of compound VII | lung index (lung weight divided by mouse weight) [4]: significantly decrease the lung index | pulmonary inflammation, injury and fibrosis in HE and Masson stained pathological sections [5]: recover to nearly normal structure | content of hydroxyproline in lung tissue [6]: effectively decrease the content of hydroxyproline

CC[C@@H]1[C@H]2CCCCN3[C@H]2[C@H](C[C@@H]3[C@@H]2C[C@H](C)C(=O)O2)[C@@H]2[C@H]1OC(=O)[C@H]2C [Compound II, Tuberostemonine A]
pulmonary inflammation, injury and fibrosis in HE and Masson stained pathological sections [5]: recover to nearly normal structure

CCN(CC)CCOCCOC(=O)C1(c2ccccc2)CCCC1 [Pentoxyverine, pentoxyverine, reference compound]
pulmonary inflammation, injury and fibrosis in HE and Masson stained pathological sections [5]: cannot decrease the degree of pulmonary injury and fibrosis | content of hydroxyproline in lung tissue ([5]; alkaloids and pentoxyverine 30 mg/kg, pirfenidone 300 mg/kg, versus model group (FIG. 1A)): no significant difference

CC[C@@H]1[C@H]2CCCCN3[C@@H]2[C@@H](C[C@H]3[C@@H]2C[C@H](C)C(=O)O2)[C@H]2[C@@H]1OC(=O)[C@H]2C [Compound IV, Tuberostemonine H]
antitussive effect [7]: very good antitussive effect | antitussive effect compared with codein [7]: weaker antitussive effect than that of codein

CC[C@@H]1[C@@H]2CCCCN3[C@@H]2[C@@H](C[C@H]3[C@@H]2C[C@H](C)C(=O)O2)[C@H]2[C@@H]1OC(=O)[C@H]2C [Compound III, Tuberostemonine J]
antitussive effect [7]: very good antitussive effect | antitussive effect compared with codein [7]: weaker antitussive effect than that of codein | pulmonary inflammation, injury and fibrosis in HE and Masson stained pathological sections [5]: recover to nearly normal structure

C[C@@H]1C[C@]2(CCCCN3[C@H]2CC[C@H]3[C@@H]2C[C@H](C)C(=O)O2)OC1=O [croomine, reference compound]
antitussive activities, comparison among stemona tuberosa alkaloids (cough reflex pathway): similar

CC[C@H]1[C@H]2[C@@H](CCCN3[C@H]2CC[C@H]3[C@@H]2C[C@H](C)C(=O)O2)O[C@]12C=C(C)C(=O)O2 [stemoninine, reference compound]
antitussive activities, comparison among stemona tuberosa alkaloids (cough reflex pathway): similar

CC[C@@H]1[C@H]2CCCCN3CC[C@@H]([C@H]4[C@@H]1OC(=O)[C@H]4C)[C@@H]23 [isostenine, reference compound]
antitussive effect [7]: very good antitussive effect
